# PubChem BioAssay AID248 (DTP/NCI, 2004)
# “And” between values parts separate entries of the source, which are not always exact repeats. Equal values may be shown once. Toxic doses and inconclusive results are not listed.
# Test system: L1210 leukemia ip in BDF1 mice, survival T/C
# Test: NCI In Vivo Anticancer Drug Screen. Data for tumor model L1210 Leukemia (intraperitoneal) in B6D2F1 (BDF1) mice
# Conditions: endpoint: mean survival time, higher = longer survival
# Procedure, shortened: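 Tumor cells were implanted, animals were treated, and survival was followed. The result divides the treated measurement by the vehicle-control measurement.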
# [1] = dose: 100.0 mg/kg/injection, schedule: Q04DX003 (ip), vehicle: saline
# [2] = dose: 200.0 mg/kg/injection, schedule: Q04DX003 (ip), vehicle: saline
# [3] = dose: 400.0 mg/kg/injection, schedule: Q04DX003 (ip), vehicle: saline
# [4] = dose: 100.0 mg/kg/injection, schedule: Q01DX009 (ip), vehicle: Klucel (hydroxypropylcellulose) (HPC)
# [5] = dose: 200.0 mg/kg/injection, schedule: Q01DX009 (ip), vehicle: Klucel (hydroxypropylcellulose) (HPC)
# [6] = dose: 400.0 mg/kg/injection, schedule: Q01DX009 (ip), vehicle: Klucel (hydroxypropylcellulose) (HPC)
# [7] = dose: 100.0 mg/kg/injection, schedule: Q04DX003 (ip), vehicle: saline with Tween-80
# [8] = dose: 200.0 mg/kg/injection, schedule: Q04DX003 (ip), vehicle: saline with Tween-80
# [9] = dose: 400.0 mg/kg/injection, schedule: Q04DX003 (ip), vehicle: saline with Tween-80
# [10] = dose: 100.0 mg/kg/injection, schedule: Q01DX001 (ip), vehicle: carboxymethylcellulose (CMC)
# [11] = dose: 200.0 mg/kg/injection, schedule: Q01DX001 (ip), vehicle: carboxymethylcellulose (CMC)
# [12] = dose: 400.0 mg/kg/injection, schedule: Q01DX001 (ip), vehicle: carboxymethylcellulose (CMC)
# [13] = dose: 75.0 mg/kg/injection, schedule: Q01DX001 (ip), vehicle: saline
# [14] = dose: 100.0 mg/kg/injection, schedule: Q01DX001 (ip), vehicle: saline
# [15] = dose: 200.0 mg/kg/injection, schedule: Q01DX001 (ip), vehicle: saline
# [16] = dose: 400.0 mg/kg/injection, schedule: Q01DX001 (ip), vehicle: saline
# [17] = dose: 100.0 mg/kg/injection, schedule: Q01DX001 (ip), vehicle: other
smiles,measurement,setting,value
Nc1cccc(CC(N)C(=O)O)c1 (stereo unspecified),T/C,[1],100 % of control
same,T/C,[2],93 % of control
same,T/C,[3],100 % of control
CCCCCCCCCCCCCCCCCC(=O)N/N=C\c1c(O)ccc2ccccc12,T/C,[4],93 % of control and 90 % of control
same,T/C,[5],88 % of control
same,T/C,[6],89 % of control
CC(C)N(C(=O)COc1ccc(Cl)cc1Cl)c1ccccc1,T/C,"dose: 100.0 mg/kg/injection, schedule: Q01DX009 (ip), vehicle: saline with Tween-80",102 % of control
same,T/C,[7],96 % of control
same,T/C,"dose: 200.0 mg/kg/injection, schedule: Q01DX009 (ip), vehicle: saline with Tween-80",106 % of control
same,T/C,[8],96 % of control
same,T/C,"dose: 400.0 mg/kg/injection, schedule: Q01DX009 (ip), vehicle: saline with Tween-80",124 % of control
same,T/C,[9],91 % of control
O=C(O)c1ccc2c(c1)C(=O)c1ccccc1-2,T/C,[10],107 % of control
same,T/C,[11],100 % of control
same,T/C,[12],107 % of control
CCCC(C(=O)OCCNC1CCCCC1)c1ccccc1 (stereo unspecified),T/C,[13],104 % of control
O=[N+]([O-])c1ccc2nc(-c3ccc(S(=O)(=O)F)cc3)cc(Cl)c2c1,T/C,[7],98 % of control
same,T/C,[8],106 % of control
same,T/C,[9],98 % of control
CN1CC(N(C)C)CCC/C=C\C1=O (stereo unspecified),T/C,[13],102 % of control
COc1ccc(Cc2c3cc(OC)c(OC)cc3cc[n+]2[O-])cc1OC,T/C,[14],91 % of control
same,T/C,[15],96 % of control
same,T/C,[16],96 % of control
O=[N+]([O-])c1cc(S(=O)(=O)N2CCCC2)ccc1N1CCCC1,T/C,[1],100 % of control
same,T/C,[2],96 % of control
same,T/C,[3],105 % of control
OCC(c1ccccc1)C(O)Cc1ccccc1 (stereo unspecified),T/C,[10],97 % of control
same,T/C,[11],95 % of control
same,T/C,[12],101 % of control
COc1ccccc1C(c1ccccc1OC)N(C)C(C)(C)CO,T/C,"dose: 6.25 mg/kg/injection, schedule: Q01DX009 (ip), vehicle: saline sonified",102 % of control
same,T/C,"dose: 12.5 mg/kg/injection, schedule: Q01DX009 (ip), vehicle: saline sonified",101 % of control
same,T/C,"dose: 25.0 mg/kg/injection, schedule: Q01DX009 (ip), vehicle: saline sonified",106 % of control
O=CC1(C(O)C2SCCCS2)SCCCS1 (stereo unspecified),T/C,[17],113 % of control
same,T/C,"dose: 200.0 mg/kg/injection, schedule: Q01DX001 (ip), vehicle: other",101 % of control
same,T/C,"dose: 400.0 mg/kg/injection, schedule: Q01DX001 (ip), vehicle: other",97 % of control
C=COC(=O)N1c2ccc(C)cc2C=CC1C#N (stereo unspecified),T/C,"dose: 100.0 mg/kg/injection, schedule: Q04DX003 (ip), vehicle: gum acacia",92 % of control
same,T/C,"dose: 200.0 mg/kg/injection, schedule: Q04DX003 (ip), vehicle: gum acacia",102 % of control
same,T/C,"dose: 400.0 mg/kg/injection, schedule: Q04DX003 (ip), vehicle: gum acacia",86 % of control
CSc1cccc(/C=C\c2ccc([N+](=O)[O-])cc2)c1,T/C,[4],101 % of control
same,T/C,"dose: 100.0 mg/kg/injection, schedule: Q04DX003 (ip), vehicle: Klucel (hydroxypropylcellulose) (HPC)",94 % of control
same,T/C,[5],100 % of control
same,T/C,"dose: 200.0 mg/kg/injection, schedule: Q04DX003 (ip), vehicle: Klucel (hydroxypropylcellulose) (HPC)",94 % of control
same,T/C,[6],88 % of control
same,T/C,"dose: 400.0 mg/kg/injection, schedule: Q04DX003 (ip), vehicle: Klucel (hydroxypropylcellulose) (HPC)",96 % of control
CN(C)[C@@H]1C(=O)C(C(=O)NCNC(Cc2ccc(N(CCCl)CCCl)cc2)C(=O)O)=C(O)[C@@]2(O)C(=O)C3=C(O)c4c(O)cccc4[C@@](C)(O)[C@H]3C[C@@H]12 (stereo partly specified),T/C,"dose: 1.3 mg/kg/injection, schedule: Q01DX009 (ip), vehicle: other",114 % of control
same,T/C,"dose: 4.69 mg/kg/injection, schedule: Q01DX009 (ip), vehicle: saline",121 % of control
same,T/C,"dose: 5.0 mg/kg/injection, schedule: Q01DX001 (ip), vehicle: saline",96 % of control
same,T/C,"dose: 6.6 mg/kg/injection, schedule: Q01DX009 (ip), vehicle: other",152 % of control
same,T/C,"dose: 9.0 mg/kg/injection, schedule: Q01DX001 (ip), vehicle: saline",109 % of control
same,T/C,"dose: 10.0 mg/kg/injection, schedule: Q01DX009 (ip), vehicle: other",173 % of control
same,T/C,"dose: 18.0 mg/kg/injection, schedule: Q01DX009 (ip), vehicle: other",189 % of control
same,T/C,"dose: 18.95 mg/kg/injection, schedule: Q01DX009 (ip), vehicle: saline",162 % of control
same,T/C,"dose: 19.0 mg/kg/injection, schedule: Q01DX001 (ip), vehicle: saline",102 % of control
same,T/C,"dose: 30.0 mg/kg/injection, schedule: Q01DX001 (ip), vehicle: other",156 % of control
same,T/C,"dose: 37.5 mg/kg/injection, schedule: Q01DX009 (ip), vehicle: saline",166 % of control
same,T/C,"dose: 38.0 mg/kg/injection, schedule: Q01DX001 (ip), vehicle: saline",123 % of control
same,T/C,"dose: 44.0 mg/kg/injection, schedule: Q01DX001 (ip), vehicle: other",152 % of control and 164 % of control
same,T/C,"dose: 67.0 mg/kg/injection, schedule: Q01DX001 (ip), vehicle: other",173 % of control
same,T/C,[13],122 % of control
same,T/C,"dose: 75.0 mg/kg/injection, schedule: Q01DX009 (ip), vehicle: saline",102 % of control
same,T/C,[17],191 % of control
CCOC(=O)/C=C/C(F)(F)C(F)(F)C(F)(F)C(F)(F)C(F)(F)C(F)(F)C(F)(F)F,T/C,"dose: 100.0 mg/kg/injection, schedule: Q01DX009 (ip), vehicle: saline",98 % of control
same,T/C,"dose: 200.0 mg/kg/injection, schedule: Q01DX009 (ip), vehicle: saline",105 % of control
same,T/C,"dose: 400.0 mg/kg/injection, schedule: Q01DX009 (ip), vehicle: saline",105 % of control
COc1ccc(CC(=O)C2C(=O)N(C)c3ccccc32)cc1OC (stereo unspecified),T/C,"dose: 50.0 mg/kg/injection, schedule: Q01DX001 (ip), vehicle: saline",104 % of control
same,T/C,[14],102 % of control
same,T/C,[15],96 % of control
same,T/C,[16],98 % of control
CN(c1ccccc1)c1cc(N)nc(N)n1,T/C,"dose: 6.0 mg/kg/injection, schedule: Q01DX Z (ip), vehicle: methylcellulose (MC)",92 % of control
CC(C)C1CCC(NC(=O)NCCF)CC1 (stereo unspecified),T/C,"dose: 9.5 mg/kg/injection, schedule: Q01DX001 (ip), vehicle: other",105 % of control
same,T/C,"dose: 19.0 mg/kg/injection, schedule: Q01DX001 (ip), vehicle: other",100 % of control
same,T/C,"dose: 38.0 mg/kg/injection, schedule: Q01DX001 (ip), vehicle: other",102 % of control
ClCCN(CCCl)c1ccc(C=Nc2ccc(-n3ccnc3)cc2)c(Cl)c1,T/C,"dose: 80.0 mg/kg/injection, schedule: Q04DX002 (ip), vehicle: Klucel (hydroxypropylcellulose) (HPC)",95 % of control
same,T/C,"dose: 160.0 mg/kg/injection, schedule: Q04DX002 (ip), vehicle: Klucel (hydroxypropylcellulose) (HPC)",102 % of control
same,T/C,"dose: 320.0 mg/kg/injection, schedule: Q04DX002 (ip), vehicle: Klucel (hydroxypropylcellulose) (HPC)",98 % of control
O=[N+]([O-])c1sc2ccccc2c1Br,T/C,"dose: 5.0 mg/kg/injection, schedule: Q04DX002 (ip), vehicle: Klucel (hydroxypropylcellulose) (HPC)",101 % of control
same,T/C,"dose: 10.0 mg/kg/injection, schedule: Q04DX002 (ip), vehicle: Klucel (hydroxypropylcellulose) (HPC)",97 % of control
same,T/C,"dose: 20.0 mg/kg/injection, schedule: Q04DX002 (ip), vehicle: Klucel (hydroxypropylcellulose) (HPC)",97 % of control
C[N+](C)(C)CCCCCCCCCC[N+](C)(C)C,T/C,"dose: 0.39 mg/kg/injection, schedule: Q04DX003 (ip), vehicle: saline with Tween-80",99 % of control
same,T/C,"dose: 0.78 mg/kg/injection, schedule: Q04DX003 (ip), vehicle: saline with Tween-80",95 % of control
same,T/C,"dose: 1.56 mg/kg/injection, schedule: Q04DX003 (ip), vehicle: saline with Tween-80",92 % of control
